Reference: patent publication US12692235B2, “Fused ring compound and application thereof” (WUHAN LL SCIENCE AND TECHNOLOGY DEVELOPMENT CO., LTD., priority 2019, dated 2026)

Target: T1, hP2X4 (human purinergic P2X receptor subtype 4) (Homo sapiens, UniProt Q99571)
T1 sequence (Q99571 1-404 isoform Q99571-2): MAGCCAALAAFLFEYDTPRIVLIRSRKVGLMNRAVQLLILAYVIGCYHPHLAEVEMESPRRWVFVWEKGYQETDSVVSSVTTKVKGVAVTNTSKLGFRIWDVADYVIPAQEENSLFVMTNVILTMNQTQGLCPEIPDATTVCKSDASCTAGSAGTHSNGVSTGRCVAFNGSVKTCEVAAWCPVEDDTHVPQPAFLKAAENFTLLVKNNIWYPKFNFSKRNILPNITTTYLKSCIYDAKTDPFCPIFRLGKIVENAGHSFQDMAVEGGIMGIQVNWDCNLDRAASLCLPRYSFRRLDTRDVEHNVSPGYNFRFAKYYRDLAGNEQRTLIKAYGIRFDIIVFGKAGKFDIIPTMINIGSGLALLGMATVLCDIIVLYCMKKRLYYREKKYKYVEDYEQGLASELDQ
Settings: P2X4 IC50 (nM), HEK293 cells stably expressing hP2X4; agonist BZ-ATP 2.5 μM; FLIPR calcium

| IC50 | Structure (SMILES) |
| --- | --- |
| 200 to 5000 nM | CN1CCN(c2ccc3c(S(N)(=O)=O)cc(NC(=O)Cc4ccccc4Cl)cc3n2)CC1 [Compound 69, 2-(2-chlorophenyl)-N-(2-(4-methylpiperazin-1-yl)-5-sulfamoylquinolin-7-yl)acetamide] |
| 50 to 200 nM | CN1CCN(c2ccc3c(S(N)(=O)=O)cc(NC(=O)Cc4ccccc4Cl)cc3n2)CC1=O [Compound 70, 2-(2-chlorophenyl)-N-(2-(4-methyl-3-carbonylpiperazin-1-yl)-5-sulfamoylquinolin-7-yl)acetamide] |
| 50 to 200 nM | COc1ccc(Oc2ccc3c(S(N)(=O)=O)cc(NC(=O)Cc4ccccc4Cl)cc3n2)cc1 [Compound 72, 2-(2-chlorophenyl)-N-(2-(4-methoxyphenoxy)-5-sulfamoylquinolin-7-yl)acetamide] |
| 200 to 5000 nM | CC(C)Nc1ccc2c(S(N)(=O)=O)cc(NC(=O)Cc3ccccc3Cl)cc2n1 [Compound 73, 2-(2-chlorophenyl)-N-(2-(isopropylamino)-5-sulfamoylquinolin-7-yl)acetamide] |
| 50 to 200 nM | COCCOc1ccc2c(S(N)(=O)=O)cc(NC(=O)Cc3ccccc3Cl)cc2n1 [Compound 74, 2-(2-chlorophenyl)-N-(2-(2-methoxyethoxy)-5-sulfamoylquinolin-7-yl)acetamide] |
| 50 to 200 nM | COc1cc2c(S(N)(=O)=O)cc(NC(=O)Cc3ccccc3Cl)cc2cn1 [Compound 75, 2-(2-chlorophenyl)-N-(3-methoxy-5-sulfamoylisoquinolin-7-yl)acetamide] |
| 50 to 200 nM | NS(=O)(=O)c1cc(NC(=O)Cc2ccccc2Cl)cc2cnc(OCCO)cc12 [Compound 76, 2-(2-chlorophenyl)-N-(3-(2-hydroxyethoxy)-5-sulfamoylisoquinolin-7-yl)acetamide] |
| 50 to 200 nM | NS(=O)(=O)c1cc(NC(=O)Cc2ccccc2Cl)cc2cnc(N3CCCCC3)cc12 [Compound 77, 2-(2-chlorophenyl)-N-(3-(piperidin-1-yl)-5-sulfamoylisoquinolin-7-yl)acetamide] |
| 50 to 200 nM | NS(=O)(=O)c1cc(NC(=O)Cc2ccccc2Cl)cc2cnc(N3CCOCC3)cc12 [Compound 78, 2-(2-chlorophenyl)-N-(3-morpholino-5-sulfamoylisoquinolin-7-yl)acetamide] |
| 50 to 200 nM | CN1CCN(c2cc3c(S(N)(=O)=O)cc(NC(=O)Cc4ccccc4Cl)cc3cn2)CC1 [Compound 79, 2-(2-chlorophenyl)-N-(3-(4-methylpiperazin-1-yl)-5-sulfamoylisoquinolin-7-yl)acetamide] |
| 50 to 200 nM | CN1CCN(c2cc3c(S(N)(=O)=O)cc(NC(=O)Cc4ccccc4Cl)cc3cn2)CC1=O [Compound 80, 2-(2-chlorophenyl)-N-(3-(4-methyl-3-carbonylpiperazin-1-yl)-5-sulfamoylisoquinolin-7-yl)acetamide] |
| 200 to 5000 nM | COc1ccc(Nc2cc3c(S(N)(=O)=O)cc(NC(=O)Cc4ccccc4Cl)cc3cn2)cc1 [Compound 81, 2-(2-chlorophenyl)-N-(3-((4-methoxyphenyl)amino)-5-sulfamoylisoquinolin-7-yl)acetamide] |
| 200 to 5000 nM | COc1ccc(Oc2cc3c(S(N)(=O)=O)cc(NC(=O)Cc4ccccc4Cl)cc3cn2)cc1 [Compound 82, 2-(2-chlorophenyl)-N-(3-(4-methoxyphenoxy)-5-sulfamoylisoquinolin-7-yl)acetamide] |
| 50 to 200 nM | CC(C)Nc1cc2c(S(N)(=O)=O)cc(NC(=O)Cc3ccccc3Cl)cc2cn1 [Compound 83, 2-(2-chlorophenyl)-N-(3-(isopropylamino)-5-sulfamoylisoquinolin-7-yl)acetamide] |
| 50 to 200 nM | COCCOc1cc2c(S(N)(=O)=O)cc(NC(=O)Cc3ccccc3Cl)cc2cn1 [Compound 84, 2-(2-chlorophenyl)-N-(3-(2-methoxyethoxy)-5-sulfamoylisoquinolin-7-yl)acetamide] |
| 200 to 5000 nM | NS(=O)(=O)c1cc(NC(=O)Cc2ccccc2Cl)cc2nc(C3CC3)ccc12 [Compound 85, 2-(2-chlorophenyl)-N-(2-cyclopropyl-5-sulfamoylquinolin-7-yl)acetamide] |
| 200 to 5000 nM | C#Cc1ccc2c(S(N)(=O)=O)cc(NC(=O)Cc3ccccc3Cl)cc2n1 [Compound 86, 2-(2-chlorophenyl)-N-(2-ethynyl-5-sulfamoylquinolin-7-yl)acetamide] |
| 10 to 50 nM | CC#Cc1ccc2c(S(N)(=O)=O)cc(NC(=O)Cc3ccccc3Cl)cc2n1 [Compound 87, 2-(2-chlorophenyl)-N-(2-(prop-1-yn-1-yl)-5-sulfamoylquinolin-7-yl)acetamide] |
| 50 to 200 nM | CN(C)c1ccc2c(S(N)(=O)=O)cc(NC(=O)Cc3ccccc3Cl)cc2n1 [Compound 88, 2-(2-chlorophenyl)-N-(2-(dimethylamino)-5-sulfamoylquinolin-7-yl)acetamide] |
| 200 to 5000 nM | NS(=O)(=O)c1cc(NC(=O)Cc2ccccc2Cl)cc2nc(N3CCCC3)ccc12 [Compound 89, (2-chlorophenyl)-N-(2-(pyrrolidin-1-yl)-5-sulfamoylquinolin-7-yl)acetamide] |
| 50 to 200 nM | N#Cc1nccc2c(S(N)(=O)=O)cc(NC(=O)Cc3ccccc3Cl)cc12 [Compound 90] |
| 200 to 5000 nM | COc1nccc2c(S(N)(=O)=O)cc(NC(=O)Cc3c(Cl)cccc3Cl)cc12 [Compound 91, 2-(2,6-dichlorophenyl)-N-(1-methoxy-5-sulfamoylisoquinolin-7-yl)acetamide] |
| 50 to 200 nM | COc1nccc2c(S(N)(=O)=O)cc(NC(=O)Cc3ccc(Cl)cc3Cl)cc12 [Compound 92, 2-(2,4-dichlorophenyl)-N-(1-methoxy-5-sulfamoylisoquinolin-7-yl)acetamide] |
| 50 to 200 nM | COc1nccc2c(S(N)(=O)=O)cc(NC(=O)Cc3cc(F)ccc3Cl)cc12 [Compound 93, 2-(2-Chloro-5-fluorophenyl)-N-(1-methoxy-5-sulfamoylisoquinolin-7-yl)acetamide] |
| 50 to 200 nM | COc1nccc2c(S(N)(=O)=O)cc(NC(=O)Cc3ccc(F)cc3Cl)cc12 [Compound 94, 2-(2-chloro-4-fluorophenyl)-N-(1-methoxy-5-sulfamoylisoquinolin-7-yl)acetamide] |
| 200 to 5000 nM | COc1ccc(F)cc1CC(=O)Nc1cc(S(N)(=O)=O)c2ccnc(OC)c2c1 [Compound 95, 2-(5-fluoro-2-methoxyphenyl)-N-(1-methoxy-5-sulfamoylisoquinolin-7-yl)acetamide] |
| 200 to 5000 nM | COc1nccc2c(S(N)(=O)=O)cc(NC(=O)Cc3ccccc3OC(F)(F)F)cc12 [Compound 96, N-(1-methoxy-5-sulfamoylisoquinolin-7-yl)-2-(2-(trifluoromethoxy)phenyl)acetamide] |
| 50 to 200 nM | COc1nccc2c(S(N)(=O)=O)cc(NC(=O)Cc3cccc(F)c3Cl)cc12 [Compound 97, 2-(2-chloro-3-fluorophenyl)-N-(1-methoxy-5-sulfamoylisoquinolin-7-yl)acetamide] |
| 10 to 50 nM | COC(=O)N1CCc2c(cc(NC(=O)Cc3ccccc3Cl)cc2S(N)(=O)=O)C1 [Compound 99, methyl 7-(2-(2-chlorophenyl)acetamido)-5-sulfamoyl-3,4-dihydroisoquinoline-2(1H)-carboxylate] |

| Structure (SMILES) | IC50 |
| --- | --- |
| NS(=O)(=O)c1cc(NC(=O)Cc2ccccc2Cl)cc2c1CCNC2 [Compound 98, 2-(2-chlorophenyl)-N-(5-sulfamoyl-1,2,3,4-tetrahydroisoquinolin-7-yl)acetamide] | 200 to 5000 nM |
